Results as given in publication PMC9310519, “Small-molecule inhibitor of intestinal anion exchanger SLC26A3 for treatment of hyperoxaluria and nephrolithiasis” (JCI Insight, 2022).

Columns and labels:
[1] = target: SLC26A3 (human) (Homo sapiens, UniProt P40879); experiment: YFP halide-sensor anion transport assay in HEK293 cells expressing human SLC26A3; assay type: cell-based
[2] = target: SLC26A3 (murine) (Mus musculus, UniProt Q9WVC8); experiment: YFP oxalate/chloride exchange assay in FRT cells stably expressing murine SLC26A3; Transwell oxalate transport; assay type: cell-based
[3] = target: T1, 5-HT1A Human Serotonin (Homo sapiens, UniProt P08908); experiment: biochemical; parameters: Eurofins SafetyScreen44 radioligand binding displacement, percent inhibition, duplicate; settings: radioligand binding
T1 construct: gene HTR1A
Protocol: (§1) Possible off-target effects of DRAinh-A270 were investigated by panel screening (Eurofins SafetyScreen44). […] Testing for CYP450 and hERG inhibition also supported DRAinh-A270 safety (Supplemental Tables 2 and 3, respectively). Finally, metabolic stability of DRAinh-A270 was measured in mouse, rat, and human microsomes.

[4] = target: T2, 5-HT1B Human Serotonin (Homo sapiens, UniProt P28222); experiment: biochemical; parameters: Eurofins SafetyScreen44 radioligand binding displacement, percent inhibition, duplicate; settings: radioligand binding
T2 construct: gene HTR1B
Protocol: as §1

[5] = target: T3, 5-HT2A Human Serotonin (Homo sapiens, UniProt P28223); experiment: biochemical; parameters: Eurofins SafetyScreen44 radioligand binding displacement, percent inhibition, duplicate; settings: radioligand binding
T3 construct: gene HTR2A
Protocol: as §1

[6] = target: T4, 5-HT2B Human Serotonin (Homo sapiens, UniProt P41595); experiment: biochemical; parameters: Eurofins SafetyScreen44 radioligand binding displacement, percent inhibition, duplicate; settings: radioligand binding
T4 construct: gene HTR2B
Protocol: as §1

[7] = target: T5, 5-HT3 Human Serotonin (Homo sapiens, UniProt P46098); experiment: biochemical; parameters: Eurofins SafetyScreen44 radioligand binding displacement, percent inhibition, duplicate; settings: radioligand binding
T5 construct: gene HTR3A
T5 sequence (P46098 whole entry): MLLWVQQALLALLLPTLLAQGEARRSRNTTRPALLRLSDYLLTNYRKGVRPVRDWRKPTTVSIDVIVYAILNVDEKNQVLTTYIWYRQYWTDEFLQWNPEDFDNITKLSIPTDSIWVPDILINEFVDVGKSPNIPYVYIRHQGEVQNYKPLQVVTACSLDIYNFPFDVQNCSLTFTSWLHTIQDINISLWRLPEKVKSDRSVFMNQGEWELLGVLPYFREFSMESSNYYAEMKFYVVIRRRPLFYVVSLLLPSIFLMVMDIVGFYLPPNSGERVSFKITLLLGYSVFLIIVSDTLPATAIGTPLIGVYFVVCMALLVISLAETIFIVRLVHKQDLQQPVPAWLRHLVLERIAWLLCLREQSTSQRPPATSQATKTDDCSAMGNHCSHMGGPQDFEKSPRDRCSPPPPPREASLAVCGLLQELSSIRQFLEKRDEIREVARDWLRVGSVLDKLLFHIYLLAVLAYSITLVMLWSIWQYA
Protocol: as §1

[8] = target: T6, A2A Human Adenosine (Homo sapiens, UniProt P29274); experiment: biochemical; parameters: Eurofins SafetyScreen44 radioligand binding displacement, percent inhibition, duplicate; settings: radioligand binding
T6 construct: gene ADORA2A
Protocol: as §1

[9] = target: AR Human Androgen (Homo sapiens, UniProt P10275); experiment: biochemical; parameters: Eurofins SafetyScreen44 radioligand binding displacement, percent inhibition, duplicate; settings: radioligand binding
Sequence of AR Human Androgen (P10275 whole entry): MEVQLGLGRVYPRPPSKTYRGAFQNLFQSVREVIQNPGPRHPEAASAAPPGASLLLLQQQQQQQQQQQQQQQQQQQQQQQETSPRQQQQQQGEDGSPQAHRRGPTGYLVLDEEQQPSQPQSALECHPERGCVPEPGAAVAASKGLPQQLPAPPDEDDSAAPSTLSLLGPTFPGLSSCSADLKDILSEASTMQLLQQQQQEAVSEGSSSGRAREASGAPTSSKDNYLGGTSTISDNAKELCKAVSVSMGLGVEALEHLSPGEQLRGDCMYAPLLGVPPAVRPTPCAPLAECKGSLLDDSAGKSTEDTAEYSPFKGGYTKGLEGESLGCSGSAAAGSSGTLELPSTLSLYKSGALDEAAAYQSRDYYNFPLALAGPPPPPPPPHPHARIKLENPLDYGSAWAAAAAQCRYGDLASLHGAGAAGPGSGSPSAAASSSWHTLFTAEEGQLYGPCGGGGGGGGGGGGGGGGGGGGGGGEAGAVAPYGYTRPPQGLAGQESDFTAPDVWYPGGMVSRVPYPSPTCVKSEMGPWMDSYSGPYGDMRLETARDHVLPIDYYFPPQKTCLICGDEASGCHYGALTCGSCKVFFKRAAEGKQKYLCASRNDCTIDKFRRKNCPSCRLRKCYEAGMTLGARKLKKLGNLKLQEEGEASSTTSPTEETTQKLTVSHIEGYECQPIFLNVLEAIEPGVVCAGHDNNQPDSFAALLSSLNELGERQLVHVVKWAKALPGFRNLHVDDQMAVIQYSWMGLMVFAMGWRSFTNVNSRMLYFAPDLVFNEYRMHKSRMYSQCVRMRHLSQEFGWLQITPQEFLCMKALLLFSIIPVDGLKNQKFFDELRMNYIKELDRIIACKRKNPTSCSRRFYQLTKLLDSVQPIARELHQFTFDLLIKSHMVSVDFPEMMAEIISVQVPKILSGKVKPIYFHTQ
Protocol: as §1

[10] = target: T7, CB1 Human Cannabinoid (Homo sapiens, UniProt P21554); experiment: biochemical; parameters: Eurofins SafetyScreen44 radioligand binding displacement, percent inhibition, duplicate; settings: radioligand binding
T7 construct: gene CNR1
Protocol: as §1

[11] = target: T8, CB2 Human Cannabinoid (Homo sapiens, UniProt P34972); experiment: biochemical; parameters: Eurofins SafetyScreen44 radioligand binding displacement, percent inhibition, duplicate; settings: radioligand binding
T8 construct: gene CNR2
T8 sequence (P34972 whole entry): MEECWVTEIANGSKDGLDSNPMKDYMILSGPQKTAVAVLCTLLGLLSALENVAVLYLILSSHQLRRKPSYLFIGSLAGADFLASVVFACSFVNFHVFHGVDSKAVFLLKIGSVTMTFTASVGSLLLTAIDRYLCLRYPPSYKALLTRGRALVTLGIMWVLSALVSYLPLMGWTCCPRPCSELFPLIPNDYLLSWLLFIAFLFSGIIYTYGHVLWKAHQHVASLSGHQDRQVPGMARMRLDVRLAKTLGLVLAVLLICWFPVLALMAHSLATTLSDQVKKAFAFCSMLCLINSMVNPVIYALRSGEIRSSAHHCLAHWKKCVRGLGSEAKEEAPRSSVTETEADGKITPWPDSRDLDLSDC
Protocol: as §1

[12] = target: T9, CCK1 (CCKA) Human Cholecystokinin (Homo sapiens, UniProt P32238); experiment: biochemical; parameters: Eurofins SafetyScreen44 radioligand binding displacement, percent inhibition, duplicate; settings: radioligand binding
T9 construct: gene CCKAR
Protocol: as §1

[13] = target: T10, D1 Human Dopamine (Homo sapiens, UniProt P21728); experiment: biochemical; parameters: Eurofins SafetyScreen44 radioligand binding displacement, percent inhibition, duplicate; settings: radioligand binding
T10 construct: gene DRD1
Protocol: as §1

[14] = target: T11, D2S Human Dopamine (Homo sapiens, UniProt P14416); experiment: biochemical; parameters: Eurofins SafetyScreen44 radioligand binding displacement, percent inhibition, duplicate; settings: radioligand binding
T11 construct: gene DRD2; D2S short isoform
Protocol: as §1

[15] = target: T12, DAT Human Dopamine Transporter (Homo sapiens, UniProt Q01959); experiment: biochemical; parameters: Eurofins SafetyScreen44 radioligand binding displacement, percent inhibition, duplicate; settings: radioligand binding
T12 construct: gene SLC6A3
Protocol: as §1

[16] = target: T13, ETA Human Endothelin (Homo sapiens, UniProt P25101); experiment: biochemical; parameters: Eurofins SafetyScreen44 radioligand binding displacement, percent inhibition, duplicate; settings: radioligand binding
T13 construct: gene EDNRA
Protocol: as §1

[17] = target: T14, GR Human Glucocorticoid (Homo sapiens, UniProt P04150); experiment: biochemical; parameters: Eurofins SafetyScreen44 radioligand binding displacement, percent inhibition, duplicate; settings: radioligand binding
T14 construct: gene NR3C1
Protocol: as §1

[18] = target: T15, H1 Human Histamine (Homo sapiens, UniProt P35367); experiment: biochemical; parameters: Eurofins SafetyScreen44 radioligand binding displacement, percent inhibition, duplicate; settings: radioligand binding
T15 construct: gene HRH1
Protocol: as §1

[19] = target: T16, H2 Human Histamine (Homo sapiens, UniProt P25021); experiment: biochemical; parameters: Eurofins SafetyScreen44 radioligand binding displacement, percent inhibition, duplicate; settings: radioligand binding
T16 construct: gene HRH2
T16 sequence (P25021 whole entry): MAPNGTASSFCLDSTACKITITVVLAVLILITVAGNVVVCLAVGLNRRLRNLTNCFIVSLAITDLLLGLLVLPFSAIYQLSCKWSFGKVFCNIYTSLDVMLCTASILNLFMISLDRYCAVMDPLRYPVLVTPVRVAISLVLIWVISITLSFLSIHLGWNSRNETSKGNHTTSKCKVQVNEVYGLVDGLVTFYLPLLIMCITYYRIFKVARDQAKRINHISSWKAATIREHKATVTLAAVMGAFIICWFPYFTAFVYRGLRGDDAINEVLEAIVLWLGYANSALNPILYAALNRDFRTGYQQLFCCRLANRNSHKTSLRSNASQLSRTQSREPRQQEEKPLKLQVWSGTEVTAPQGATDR
Protocol: as §1

[20] = target: T17, M1 Human Acetylcholine (Muscarinic) (Homo sapiens, UniProt P11229); experiment: biochemical; parameters: Eurofins SafetyScreen44 radioligand binding displacement, percent inhibition, duplicate; settings: radioligand binding
T17 construct: gene CHRM1
Protocol: as §1

[21] = target: T18, M2 Human Acetylcholine (Muscarinic) (Homo sapiens, UniProt P08172); experiment: biochemical; parameters: Eurofins SafetyScreen44 radioligand binding displacement, percent inhibition, duplicate; settings: radioligand binding
T18 construct: gene CHRM2
Protocol: as §1

[22] = target: T19, M3 Human Acetylcholine (Muscarinic) (Homo sapiens, UniProt P20309); experiment: biochemical; parameters: Eurofins SafetyScreen44 radioligand binding displacement, percent inhibition, duplicate; settings: radioligand binding
T19 construct: gene CHRM3
Protocol: as §1

[23] = target: T20, NET Human Norepinephrine Transporter (Homo sapiens, UniProt P23975); experiment: biochemical; parameters: Eurofins SafetyScreen44 radioligand binding displacement, percent inhibition, duplicate; settings: radioligand binding
T20 construct: gene SLC6A2
Protocol: as §1

[24] = target: T21, V1A Human Vasopressin (Homo sapiens, UniProt P37288); experiment: biochemical; parameters: Eurofins SafetyScreen44 radioligand binding displacement, percent inhibition, duplicate; settings: radioligand binding
T21 construct: gene AVPR1A
Protocol: as §1

[25] = target: T22, alpha1A Human Adrenoceptor (Homo sapiens, UniProt P35348); experiment: biochemical; parameters: Eurofins SafetyScreen44 radioligand binding displacement, percent inhibition, duplicate; settings: radioligand binding
T22 construct: gene ADRA1A
Protocol: as §1

[26] = target: T23, alpha2A Human Adrenoceptor (Homo sapiens, UniProt P08913); experiment: biochemical; parameters: Eurofins SafetyScreen44 radioligand binding displacement, percent inhibition, duplicate; settings: radioligand binding
T23 construct: gene ADRA2A
Protocol: as §1

[27] = target: T24, beta1 Human Adrenoceptor (Homo sapiens, UniProt P08588); experiment: biochemical; parameters: Eurofins SafetyScreen44 radioligand binding displacement, percent inhibition, duplicate; settings: radioligand binding
T24 construct: gene ADRB1
Protocol: as §1

[28] = target: T25, beta2 Human Adrenoceptor (Homo sapiens, UniProt P07550); experiment: biochemical; parameters: Eurofins SafetyScreen44 radioligand binding displacement, percent inhibition, duplicate; settings: radioligand binding
T25 construct: gene ADRB2
T25 sequence (P07550 whole entry): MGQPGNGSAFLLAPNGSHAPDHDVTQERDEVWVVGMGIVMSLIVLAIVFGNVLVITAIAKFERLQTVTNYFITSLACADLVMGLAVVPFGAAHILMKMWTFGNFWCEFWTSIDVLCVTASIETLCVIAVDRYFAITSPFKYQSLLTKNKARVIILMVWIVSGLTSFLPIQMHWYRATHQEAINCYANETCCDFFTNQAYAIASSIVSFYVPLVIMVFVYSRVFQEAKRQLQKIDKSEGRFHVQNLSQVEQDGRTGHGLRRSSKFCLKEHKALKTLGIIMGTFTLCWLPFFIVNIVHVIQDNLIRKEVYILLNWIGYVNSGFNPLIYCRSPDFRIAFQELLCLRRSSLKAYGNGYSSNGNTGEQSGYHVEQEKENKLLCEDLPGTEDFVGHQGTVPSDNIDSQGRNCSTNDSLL
Protocol: as §1

[29] = target: T26, delta (DOP) Human Opioid (Homo sapiens, UniProt P41143); experiment: biochemical; parameters: Eurofins SafetyScreen44 radioligand binding displacement, percent inhibition, duplicate; settings: radioligand binding
T26 construct: gene OPRD1
Protocol: as §1

[30] = target: T27, hERG (Homo sapiens, UniProt Q12809); experiment: in vitro; parameters: Eurofins SafetyScreen44 radioligand binding displacement, percent inhibition, duplicate; settings: radioligand binding
T27 construct: gene KCNH2
Protocol: as §1

[31] = target: T28, kappa (KOP) Human Opioid (Homo sapiens, UniProt P41145); experiment: biochemical; parameters: Eurofins SafetyScreen44 radioligand binding displacement, percent inhibition, duplicate; settings: radioligand binding
T28 construct: gene OPRK1
Protocol: as §1

[32] = target: T29, mu (MOP) Human Opioid (Homo sapiens, UniProt P35372); experiment: biochemical; parameters: Eurofins SafetyScreen44 radioligand binding displacement, percent inhibition, duplicate; settings: radioligand binding
T29 construct: gene OPRM1
T29 sequence (P35372 whole entry): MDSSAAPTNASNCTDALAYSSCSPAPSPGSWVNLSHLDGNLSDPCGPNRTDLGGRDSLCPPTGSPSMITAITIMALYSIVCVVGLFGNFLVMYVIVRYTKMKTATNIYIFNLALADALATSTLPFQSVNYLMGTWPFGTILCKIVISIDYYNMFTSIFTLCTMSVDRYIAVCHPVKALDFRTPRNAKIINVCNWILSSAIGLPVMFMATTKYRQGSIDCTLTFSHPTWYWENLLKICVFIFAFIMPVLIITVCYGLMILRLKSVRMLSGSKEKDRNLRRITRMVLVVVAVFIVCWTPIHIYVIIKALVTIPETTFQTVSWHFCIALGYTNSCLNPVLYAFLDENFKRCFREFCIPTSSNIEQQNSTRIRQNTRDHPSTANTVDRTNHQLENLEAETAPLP
Protocol: as §1

[33] = target: T30, nAChR (alpha4/beta2) Human Ion Channel (Homo sapiens, UniProt P17787+P43681); experiment: biochemical; parameters: Eurofins SafetyScreen44 radioligand binding displacement, percent inhibition, duplicate; settings: radioligand binding
T30 construct: gene CHRNB2
T30 sequence (P17787 whole entry): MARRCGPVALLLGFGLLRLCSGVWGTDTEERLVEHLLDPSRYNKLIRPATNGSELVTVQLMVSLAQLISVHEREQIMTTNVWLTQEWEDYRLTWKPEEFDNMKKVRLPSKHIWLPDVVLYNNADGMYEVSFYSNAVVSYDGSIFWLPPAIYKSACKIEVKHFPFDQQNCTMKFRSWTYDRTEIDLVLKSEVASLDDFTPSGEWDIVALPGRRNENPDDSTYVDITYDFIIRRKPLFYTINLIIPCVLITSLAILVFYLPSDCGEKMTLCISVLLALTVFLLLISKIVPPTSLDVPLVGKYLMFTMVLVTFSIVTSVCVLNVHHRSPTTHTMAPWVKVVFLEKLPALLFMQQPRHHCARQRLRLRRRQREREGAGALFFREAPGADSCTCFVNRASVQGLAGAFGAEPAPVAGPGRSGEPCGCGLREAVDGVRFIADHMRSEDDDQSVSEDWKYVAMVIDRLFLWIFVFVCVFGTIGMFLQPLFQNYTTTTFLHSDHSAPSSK
T30 sequence (P43681 whole entry): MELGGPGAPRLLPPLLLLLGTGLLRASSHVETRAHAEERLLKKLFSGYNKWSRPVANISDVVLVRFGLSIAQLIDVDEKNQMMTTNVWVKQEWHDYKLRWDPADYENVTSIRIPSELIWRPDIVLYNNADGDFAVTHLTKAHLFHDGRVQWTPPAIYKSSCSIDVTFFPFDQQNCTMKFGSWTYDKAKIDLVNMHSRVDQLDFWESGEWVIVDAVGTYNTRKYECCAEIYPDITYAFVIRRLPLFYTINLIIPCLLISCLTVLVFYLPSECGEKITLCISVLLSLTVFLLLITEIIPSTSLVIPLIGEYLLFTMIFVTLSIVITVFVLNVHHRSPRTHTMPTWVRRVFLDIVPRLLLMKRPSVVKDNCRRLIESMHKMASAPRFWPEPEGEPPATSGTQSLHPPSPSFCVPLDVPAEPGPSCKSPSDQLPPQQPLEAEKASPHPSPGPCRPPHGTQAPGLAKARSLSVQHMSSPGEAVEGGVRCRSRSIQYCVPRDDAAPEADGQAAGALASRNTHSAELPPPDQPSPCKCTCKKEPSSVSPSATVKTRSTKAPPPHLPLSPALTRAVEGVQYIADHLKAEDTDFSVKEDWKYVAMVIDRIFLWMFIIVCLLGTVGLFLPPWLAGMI
Protocol: as §1

[34] = target: T31, Acetylcholinesterase (Homo sapiens, UniProt P22303); experiment: biochemical; parameters: Eurofins SafetyScreen44 enzymatic assay, percent inhibition, duplicate; settings: enzymatic assay
T31 construct: gene ACHE
Protocol: as §1

[35] = target: T32, COX1 Human Cyclooxygenase (Homo sapiens, UniProt P23219); experiment: biochemical; parameters: Eurofins SafetyScreen44 enzymatic assay, percent inhibition, duplicate; settings: enzymatic assay
T32 construct: gene PTGS1
Protocol: as §1

[36] = target: T33, COX2 Human Cyclooxygenase (Homo sapiens, UniProt P35354); experiment: biochemical; parameters: Eurofins SafetyScreen44 enzymatic assay, percent inhibition, duplicate; settings: enzymatic assay
T33 construct: gene PTGS2
Protocol: as §1

[37] = target: T34, Monoamine Oxidase A (MAO-A) (Homo sapiens, UniProt P21397); experiment: biochemical; parameters: Eurofins SafetyScreen44 enzymatic assay, percent inhibition, duplicate; settings: enzymatic assay
T34 construct: gene MAOA
Protocol: as §1

[38] = target: PDE3A Human Phosphodiesterase (Homo sapiens, UniProt Q14432); experiment: biochemical; parameters: Eurofins SafetyScreen44 enzymatic assay, percent inhibition, duplicate; settings: enzymatic assay
Protocol: as §1

[39] = target: T35, PDE4D2 Human Phosphodiesterase (Homo sapiens, UniProt Q08499); experiment: biochemical; parameters: Eurofins SafetyScreen44 enzymatic assay, percent inhibition, duplicate; settings: enzymatic assay
T35 construct: gene PDE4D; PDE4D2 isoform
T35 sequence (Q08499 whole entry, canonical isoform): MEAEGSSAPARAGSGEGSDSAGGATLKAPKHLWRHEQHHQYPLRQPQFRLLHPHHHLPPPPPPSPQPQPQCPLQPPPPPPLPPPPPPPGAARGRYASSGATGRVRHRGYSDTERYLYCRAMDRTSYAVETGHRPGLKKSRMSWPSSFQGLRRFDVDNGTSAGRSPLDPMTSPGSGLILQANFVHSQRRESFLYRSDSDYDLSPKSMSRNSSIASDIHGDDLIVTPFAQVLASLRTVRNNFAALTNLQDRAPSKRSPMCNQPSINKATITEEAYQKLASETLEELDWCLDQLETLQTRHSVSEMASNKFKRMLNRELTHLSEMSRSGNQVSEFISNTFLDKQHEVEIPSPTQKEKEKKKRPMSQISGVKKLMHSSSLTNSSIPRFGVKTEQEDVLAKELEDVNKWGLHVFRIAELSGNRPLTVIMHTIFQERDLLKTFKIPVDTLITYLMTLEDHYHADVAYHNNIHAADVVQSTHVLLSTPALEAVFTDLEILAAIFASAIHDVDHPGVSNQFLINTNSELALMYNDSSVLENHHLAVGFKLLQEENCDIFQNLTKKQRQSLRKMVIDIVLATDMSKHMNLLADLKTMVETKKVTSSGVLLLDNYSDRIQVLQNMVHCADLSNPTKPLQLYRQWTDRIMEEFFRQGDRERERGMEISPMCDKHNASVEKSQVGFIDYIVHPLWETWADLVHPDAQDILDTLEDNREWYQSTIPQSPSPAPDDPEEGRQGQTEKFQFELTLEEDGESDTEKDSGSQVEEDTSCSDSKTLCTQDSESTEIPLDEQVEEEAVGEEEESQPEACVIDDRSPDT
Protocol: as §1

Q: For `Cc1c(CC(=O)O)c(=O)oc2c(C)c(OCc3cccc(I)c3)ccc12` [4az (in ref. 19), DRAinh-A270], which IC50 [1] is on record?
A: 20 nM

Q: What about the IC50 [2] of the same compound?
A: ~60 nM

Q: And the inhibition at 10 µM [3]?
A: 0%

Q: What about the inhibition at 10 µM [4] of the same compound?
A: -1%

Q: And the inhibition at 10 µM [5]?
A: 17%

Q: And the inhibition at 10 µM [6]?
A: 64%

Q: And the inhibition at 10 µM [7]?
A: -6%

Q: What about the inhibition at 10 µM [8] of the same compound?
A: 46%

Q: What about the inhibition at 10 µM [9] of the same compound?
A: 13%

Q: And the inhibition at 10 µM [10]?
A: -3%

Q: What about the inhibition at 10 µM [11] of the same compound?
A: -1%

Q: And the inhibition at 10 µM [12]?
A: -5%

Q: What about the inhibition at 10 µM [13] of the same compound?
A: 13%

Q: What about the inhibition at 10 µM [14] of the same compound?
A: 2%

Q: What about the inhibition at 10 µM [15] of the same compound?
A: -2%

Q: And the inhibition at 10 µM [16]?
A: 13%

Q: And the inhibition at 10 µM [17]?
A: -7%

Q: What about the inhibition at 10 µM [18] of the same compound?
A: 27%

Q: And the inhibition at 10 µM [19]?
A: -2%

Q: What about the inhibition at 10 µM [20] of the same compound?
A: 9%

Q: And the inhibition at 10 µM [21]?
A: -3%

Q: What about the inhibition at 10 µM [22] of the same compound?
A: 8%

Q: What about the inhibition at 10 µM [23] of the same compound?
A: 29%

Q: What about the inhibition at 10 µM [24] of the same compound?
A: -1%

Q: And the inhibition at 10 µM [25]?
A: 5%

Q: What about the inhibition at 10 µM [26] of the same compound?
A: 47%

Q: What about the inhibition at 10 µM [27] of the same compound?
A: 14%

Q: And the inhibition at 10 µM [28]?
A: 3%

Q: What about the inhibition at 10 µM [29] of the same compound?
A: -3%

Q: And the inhibition at 10 µM [30]?
A: 19%

Q: What about the inhibition at 10 µM [31] of the same compound?
A: 7%

Q: And the inhibition at 10 µM [32]?
A: -5%

Q: What about the inhibition at 10 µM [33] of the same compound?
A: -3%

Q: What about the inhibition at 10 µM [34] of the same compound?
A: 10%

Q: What about the inhibition at 10 µM [35] of the same compound?
A: -1%

Q: And the inhibition at 10 µM [36]?
A: 15%

Q: And the inhibition at 10 µM [37]?
A: 73%

Q: What about the inhibition at 10 µM [38] of the same compound?
A: 4%

Q: And the inhibition at 10 µM [39]?
A: -2%
